According to PubChem BioAssay AID2060494 (Molecular Pharmacology Branch, DTP, NCI, 2025):

System: 435261-313-R-J1-PDC complex spheroid viability
Assay: Anticancer human tumor 435261-313-R-J1-PDC patient-derived colon adenocarcinoma cell line growth inhibition [GQUAD]
Details: for IC50: curve of first compound; for viability, T/C: stronger effect = lower value
From the text: DNA G-quadruplex Stabilizer Agents in Combinations in Complex Spheroids
A high-throughput screen of multi-cell type tumor spheroids was designed to identify active combinations of DNA G-quadruplex stabilizer agents and targeted small molecules. Complex spheroids include a stromal component modeled by human endothelial cells (HUVEC) and fibroblasts modeled by human mesenchymal stem cells (MSCs). The concentration ranges selected for each drug and investigational agent were based upon clinically achievable concentrations if the clinical Cmax of the agent was known.
Compounds. The drugs and investigational agents: pidnarulex (CX-5461; NSC782164), APTO-253 (NSC789042), BRACO-19 (NSC847499), peposertib (NSC802822), ceralasertib (NSC780249), elimusertib (NSC800525), camonsertib (NSC841442), AZD-1390 (NSC803789), olaparib (NSC753686), talazoparib (NSC767125), ART-558 (NSC835418), sotorasib (NSC818433), MRTX-1133 (NSC836407), SN-38 (NSC673596), topotecan (NSC609699), etoposide (NSC141540), doxorubicin (NSC123127), gemcitabine (NSC613327), 5-fluorouracil (NSC19893), paclitaxel (NSC125973), vemurafenib (NSC761431), panobinostat (NSC761190), R-306465 (JNJ-16241199; NSC773264), adavosertib (NSC754352), TP-3654 (NSC805149), carboplatin (NSC241240), KSQ-4279 (NSC840948), and staurosporine (NSC755774) were obtained from the National Cancer Institute (NCI) Developmental Therapeutics Program Chemical Repository (34). The FDA-approved anticancer drug set is available from the NCI Developmental Therapeutics Program. […] The stock solutions were prepared in dimethyl sulfoxide (DMSO, Sigma-Aldrich, St. Louis, MO, cat. D2650) at 800-fold the tested concentration and stored at -70 degrees C prior to their use. All drugs and investigational agents were tested over a range starting from a high concentration at or near the clinical Cmax and decreasing in half-log increments. If the clinical Cmax for an agent had not been determined, the highest concentration tested was 10 microM.
2.3 Cell Culture. All cells were maintained in an incubator at 37 degrees C and 5% CO2 with 95% humidity. The PDC lines were cultured according to standard operating procedures established by the NCI PDMR. All PDCs were thawed and cultured in Matrigel-coated flasks prepared with a working solution of 1X Ham's F-12 nutrient mix, without supplementation (Invitrogen, cat. 11765054), 100 U/mL penicillin-streptomycin (Invitrogen, cat. 15140122), and 2.5% Matrigel (Corning Inc., cat. 354248) for the first three passages. The 857933-349-R-J2-PDC line was cultured in 6C/Colon 1B media, which includes advanced DMEM/F-12 (Thermo Fisher Scientific, cat. 12634028), 10 mM HEPES (Thermo Fisher Scientific, cat. 15630080), 1X GlutaMAX supplement (Thermo Fisher Scientific, cat. 35050061), 0.1 mg/mL primocin (InvivoGen, cat. ant-pm-2), 10% defined fetal bovine serum, heat inactivated (HyClone Laboratories Inc., cat. SH30070.03HI), 50% L-WRN conditioned media (ATCC, cat. CRL-3276), 1.25 mM N-Acetyl-L-cysteine (Sigma-Aldrich, cat. A9165), 10 mM nicotinamide (Sigma-Aldrich, cat. N0636), 1X B-27 supplement (Thermo Fisher Scientific, cat. 17504044), 1X N-2 supplement (Thermo Fisher Scientific, cat. 17502048), 10 microM Y-27632 dihydrochloride (Tocris Bioscience, cat. 1254), and 50 ng/mL human EGF recombinant protein (Thermo Fisher Scientific, cat. PHG0311). The 485176-168-R4-J1-PDC line was cultured in Panc media, which includes all 6C/Colon 1B media components plus 100 ng/mL human FGF-10 (Thermo Fisher Scientific, cat. 100-26), 500 nM SB-431542 (Selleckchem, cat. S1067), and gastrin (Tocris, cat. 3006).
[…]

[1] = second compound 0.0316 µM, first compound 0.0316 µM
[2] = second compound 0.0316 µM, first compound 0.1 µM
[3] = second compound 0.0316 µM, first compound 0.316 µM
[4] = second compound 0.0316 µM, first compound 1 µM
[5] = second compound 0.0316 µM, first compound 3.16 µM
[6] = second compound 0.0316 µM, first compound 10 µM
[7] = second compound 0.1 µM, first compound 0.0316 µM
[8] = second compound 0.1 µM, first compound 0.1 µM
[9] = second compound 0.1 µM, first compound 0.316 µM
[10] = second compound 0.1 µM, first compound 1 µM
[11] = second compound 0.1 µM, first compound 3.16 µM
[12] = second compound 0.1 µM, first compound 10 µM
[13] = second compound 0.316 µM, first compound 0.0316 µM
[14] = second compound 0.316 µM, first compound 0.1 µM
[15] = second compound 0.316 µM, first compound 0.316 µM
[16] = second compound 0.316 µM, first compound 1 µM
[17] = second compound 0.316 µM, first compound 3.16 µM
[18] = second compound 0.316 µM, first compound 10 µM
[19] = second compound 1 µM, first compound 0.0316 µM
[20] = second compound 1 µM, first compound 0.1 µM
[21] = second compound 1 µM, first compound 0.316 µM
[22] = second compound 1 µM, first compound 1 µM
[23] = second compound 1 µM, first compound 3.16 µM
[24] = second compound 1 µM, first compound 10 µM
[25] = second compound 3.16 µM, first compound 0.0316 µM
[26] = second compound 3.16 µM, first compound 0.1 µM
[27] = second compound 3.16 µM, first compound 0.316 µM
[28] = second compound 3.16 µM, first compound 1 µM
[29] = second compound 3.16 µM, first compound 3.16 µM
[30] = second compound 3.16 µM, first compound 10 µM
[31] = second compound 10 µM, first compound 0.0316 µM
[32] = second compound 10 µM, first compound 0.1 µM
[33] = second compound 10 µM, first compound 0.316 µM
[34] = second compound 10 µM, first compound 1 µM
[35] = second compound 10 µM, first compound 3.16 µM
[36] = second compound 10 µM, first compound 10 µM
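Further: spheroids exposed to the agents for seven days before readout.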
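Wherever viability, T/C is given: percent of vehicle control viability with DMSO wells as 100%.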

`C=CC(=O)N1CCN(c2nc(=O)n(-c3c(C)ccnc3C(C)C)c3nc(-c4c(O)cccc4F)c(F)cc23)C(C)C1` (stereo unspecified) + Cc1[nH]c2ccc(F)cc2c1-c1nc2c3cccnc3c3ncccc3c2[nH]1 was tested, and the IC50 (second compound 0.0316 µM) was over 10 µM, the IC50 (second compound 0.1 µM) was over 10 µM and the IC50 (second compound 0.316 µM) was over 10 µM. The IC50 (second compound 1 µM) was over 10 µM, the IC50 (second compound 3.16 µM) was under 0.0316 µM and the IC50 (second compound 10 µM) was under 0.0316 µM. For the same compound, the viability, T/C [1] was 98.7%, the viability, T/C [2] was 69.3% and the viability, T/C [3] was 116%. The viability, T/C [4] was 126%, the viability, T/C [5] was 127% and the viability, T/C [6] was 83.8%. It also gave a viability, T/C [7] of 85%, a viability, T/C [8] of 131% and a viability, T/C [9] of 92.8%. The viability, T/C [10] was 109%, the viability, T/C [11] was 129% and the viability, T/C [12] was 97.8%. For the same compound, the viability, T/C [13] was 97.6%, the viability, T/C [14] was 106% and the viability, T/C [15] was 88.7%. It also gave a viability, T/C [16] of 73.9%, a viability, T/C [17] of 122% and a viability, T/C [18] of 104%. The viability, T/C [19] was 78.4%, the viability, T/C [20] was 84% and the viability, T/C [21] was 74.2%. For the same compound, the viability, T/C [22] was 71.2%, the viability, T/C [23] was 61% and the viability, T/C [24] was 80.4%. It also gave a viability, T/C [25] of 41.5%, a viability, T/C [26] of 27.6% and a viability, T/C [27] of 28.1%. For the same compound, the viability, T/C [28] was 42.5%, the viability, T/C [29] was 54.2% and the viability, T/C [30] was 32%. It also gave a viability, T/C [31] of 22.4%, a viability, T/C [32] of 24.8% and a viability, T/C [33] of 24.8%. For the same compound, the viability, T/C [34] was 16.2%, the viability, T/C [35] was 28.3% and the viability, T/C [36] was 22.4%.

`CN(C)c1ccc(Nc2c3ccc(NC(=O)CCN4CCCC4)cc3nc3cc(NC(=O)CCN4CCCC4)ccc23)cc1` was tested, and the viability, T/C (compound 3.16 µM) was 63.9% [middle of 11 runs] and the viability, T/C (compound 10 µM) was 41.3% [middle of 11 runs].

`O=c1[nH]cc(F)c(=O)[nH]1` + Cc1cnc(CNC(=O)c2c(=O)c3ccc(N4CCCN(C)CC4)nc3n3c2sc2ccccc23)cn1 showed an IC50 (second compound 0.0316 µM) of over 10 µM, an IC50 (second compound 0.1 µM) of over 10 µM and an IC50 (second compound 0.316 µM) of over 10 µM. It also gave an IC50 (second compound 1 µM) of under 0.0316 µM, an IC50 (second compound 3.16 µM) of under 0.0316 µM and an IC50 (second compound 10 µM) of under 0.0316 µM. It also gave a viability, T/C [1] of 85.2%, a viability, T/C [2] of 68.1% and a viability, T/C [3] of 76.1%. The viability, T/C [4] was 67.4%, the viability, T/C [5] was 81.4% and the viability, T/C [6] was 86.7%. For the same compound, the viability, T/C [7] was 68.8%, the viability, T/C [8] was 64% and the viability, T/C [9] was 56.1%. It also gave a viability, T/C [10] of 65.7%, a viability, T/C [11] of 81.9% and a viability, T/C [12] of 61.1%. It also gave a viability, T/C [13] of 57.3%, a viability, T/C [14] of 59.5% and a viability, T/C [15] of 56.7%. The viability, T/C [16] was 56%, the viability, T/C [17] was 67% and the viability, T/C [18] was 60.6%. The viability, T/C [19] was 41.5%, the viability, T/C [20] was 45.9% and the viability, T/C [21] was 47.6%. For the same compound, the viability, T/C [22] was 47%, the viability, T/C [23] was 55.1% and the viability, T/C [24] was 40.2%. It also gave a viability, T/C [25] of 20.3%, a viability, T/C [26] of 19.4% and a viability, T/C [27] of 17.6%. It also gave a viability, T/C [28] of 24.2%, a viability, T/C [29] of 18.9% and a viability, T/C [30] of 23.6%. The viability, T/C [31] was 0.16%, the viability, T/C [32] was 0.18% and the viability, T/C [33] was 0.23%. It also gave a viability, T/C [34] of 0.21%, a viability, T/C [35] of 0.23% and a viability, T/C [36] of 0.21%.
